# Counter-ions that a name gives are not always drawn.
# Columns and labels:
# PARP-1 enzyme [1] = biological target: PARP-1 enzyme (Homo sapiens (Human), UniProt P09874); test: Poly(ADP-ribose)polymerase [PARP-1] enzyme inhibitory activity (Trevigen PARP Assay kit); assay type: biochemical; conditions: read-out: PARP-1 Inhibitory activity IC50
# How it was run: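 On histone-coated plates, PARP-1 (0.12 unit/well) reacted with compound for 30 min at 25 °C in a 2× cocktail of 1.95 mM NAD+, 50 μM biotinylated NAD+ and activated DNA (Tris pH 8.0, 25 mM MgCl2). Biotin-ribosylated histone was detected with streptavidin-HRP and TACS-Sapphire substrate, stopped with HCl and read at 450 nm.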
# PARP-1 enzyme [2] = biological target: PARP-1 enzyme (Cricetulus griseus (Chinese hamster) (Cricetulus barabensis griseus), UniProt Q9R152); test: Intracellular PARP inhibitory activity (NAD(P)H released by MMS-treated CHO-K1 cells); assay type: cell-based
# SK-OV-3 Cell line = test: Cell growth inhibition of cancer cell lines (SRB assay), SK-OV-3; assay type: cell-based
# Description: The tests on cell growth inhibitory activity were performed with respect to A549 (US, ATCC), SK-OV-3 (Korea Research Institute of Chemical Technology; KRICT), HT-29 (US, ATCC), MCF-7 cell (US, ATCC), using Sulforhodamin-B <SRB> Assay (1989, US National Cancer Institute (NCI)) which was developed to measure the in vitro anti-cancer activity of the drug. […] The samples of the compounds of the Examples according to the present invention were used for the tests, and before the tests, the samples were dissolved in dimethylsulfoxide and diluted with the culture medium (RPMI 1640) to be used. The final concentration of the sample was varied in the range of 0.3˜100 μM. After the culture medium was removed from the 96 well plates, the diluted sample solution was added by 100 μl, and cultured in 37° C., 5% CO2 culture medium for 72 hours. The time zero (Tz) plates were collected at the time point of adding the sample. Upon completing the culture, the medium was removed from each well along with Tz plate, then cold 10% trichloroacetic acid (TCA) was added by 100 μl per well. The wells were left at 4° C. for 1 hour, so that the cells were fixed into the bottom of the plates. After the cells were fixed, the plates were rinsed with water five to six times to remove the remaining trichloroacetic acid solution, and moisture was completely dried at room temperature. The cells were dyed for 30 minutes by adding the dye solution in which 0.4% sulforhodamine-B was dissolved in 1% acetic acid solution, by 100 μl per dried wells. The above was rinsed again with 1% acetic acid solution five to six times to ensure that sulforhodamine-B which had not attached to the cells was removed. The plates were again dried at room temperature. 100 μl of 10 mM tris-buffer was then added to dissolve the dye, and the optical density (OD) at 520 nm was measured with the microplate reader. GI50 of the sample regarding cancer cell was calculated as explained below. Time zero (Tz), control value (C) and test value (T) were obtained, in which Tz corresponds to OD value of time at which the sample is applied and culture is started, C corresponds to OD value of the well which is cultured without treatment with the sample, and T corresponds to OD value of the well which is treated with the sample and then cultured. The degree of cell growth inhibition of the sample was measured using: If […] [Mathematical Formula 1]
# Further, the ability of Examples 2, 42, 49, 52, 72, 74, 101 to increase growth inhibition effect of temozolomide and SN-38 at 2 μM was determined.
# Chain of PARP-1 enzyme (Cricetulus griseus (Chinese hamster) (Cricetulus barabensis griseus), UniProt Q9R152) (Q9R152 whole entry): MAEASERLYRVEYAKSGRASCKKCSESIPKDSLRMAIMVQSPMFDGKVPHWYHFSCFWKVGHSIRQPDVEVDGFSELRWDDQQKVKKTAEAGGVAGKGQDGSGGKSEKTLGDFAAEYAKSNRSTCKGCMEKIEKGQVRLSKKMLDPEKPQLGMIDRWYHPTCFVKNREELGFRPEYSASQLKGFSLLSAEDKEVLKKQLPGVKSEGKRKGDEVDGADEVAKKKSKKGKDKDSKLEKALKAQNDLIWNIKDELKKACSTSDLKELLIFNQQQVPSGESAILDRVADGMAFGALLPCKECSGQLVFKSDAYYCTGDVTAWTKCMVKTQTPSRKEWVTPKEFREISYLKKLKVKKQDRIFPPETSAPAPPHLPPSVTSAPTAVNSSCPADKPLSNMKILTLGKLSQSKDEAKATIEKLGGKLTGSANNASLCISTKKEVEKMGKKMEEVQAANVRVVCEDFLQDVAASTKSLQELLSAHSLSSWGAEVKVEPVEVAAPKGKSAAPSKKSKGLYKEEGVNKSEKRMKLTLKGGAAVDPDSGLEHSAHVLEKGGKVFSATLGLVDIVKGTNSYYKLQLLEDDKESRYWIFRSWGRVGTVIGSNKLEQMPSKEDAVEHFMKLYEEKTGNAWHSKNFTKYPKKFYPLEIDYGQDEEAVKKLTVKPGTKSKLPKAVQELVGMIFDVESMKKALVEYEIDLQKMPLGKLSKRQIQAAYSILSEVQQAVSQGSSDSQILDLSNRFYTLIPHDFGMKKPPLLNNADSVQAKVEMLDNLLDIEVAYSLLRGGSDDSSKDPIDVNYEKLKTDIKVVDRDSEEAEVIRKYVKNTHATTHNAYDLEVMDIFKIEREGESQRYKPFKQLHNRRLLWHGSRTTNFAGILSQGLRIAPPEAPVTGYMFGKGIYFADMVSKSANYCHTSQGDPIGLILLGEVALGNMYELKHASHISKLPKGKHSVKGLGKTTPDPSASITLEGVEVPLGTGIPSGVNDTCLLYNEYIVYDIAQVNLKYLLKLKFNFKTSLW
# Chain of PARP-1 enzyme (Homo sapiens (Human), UniProt P09874) (P09874 whole entry): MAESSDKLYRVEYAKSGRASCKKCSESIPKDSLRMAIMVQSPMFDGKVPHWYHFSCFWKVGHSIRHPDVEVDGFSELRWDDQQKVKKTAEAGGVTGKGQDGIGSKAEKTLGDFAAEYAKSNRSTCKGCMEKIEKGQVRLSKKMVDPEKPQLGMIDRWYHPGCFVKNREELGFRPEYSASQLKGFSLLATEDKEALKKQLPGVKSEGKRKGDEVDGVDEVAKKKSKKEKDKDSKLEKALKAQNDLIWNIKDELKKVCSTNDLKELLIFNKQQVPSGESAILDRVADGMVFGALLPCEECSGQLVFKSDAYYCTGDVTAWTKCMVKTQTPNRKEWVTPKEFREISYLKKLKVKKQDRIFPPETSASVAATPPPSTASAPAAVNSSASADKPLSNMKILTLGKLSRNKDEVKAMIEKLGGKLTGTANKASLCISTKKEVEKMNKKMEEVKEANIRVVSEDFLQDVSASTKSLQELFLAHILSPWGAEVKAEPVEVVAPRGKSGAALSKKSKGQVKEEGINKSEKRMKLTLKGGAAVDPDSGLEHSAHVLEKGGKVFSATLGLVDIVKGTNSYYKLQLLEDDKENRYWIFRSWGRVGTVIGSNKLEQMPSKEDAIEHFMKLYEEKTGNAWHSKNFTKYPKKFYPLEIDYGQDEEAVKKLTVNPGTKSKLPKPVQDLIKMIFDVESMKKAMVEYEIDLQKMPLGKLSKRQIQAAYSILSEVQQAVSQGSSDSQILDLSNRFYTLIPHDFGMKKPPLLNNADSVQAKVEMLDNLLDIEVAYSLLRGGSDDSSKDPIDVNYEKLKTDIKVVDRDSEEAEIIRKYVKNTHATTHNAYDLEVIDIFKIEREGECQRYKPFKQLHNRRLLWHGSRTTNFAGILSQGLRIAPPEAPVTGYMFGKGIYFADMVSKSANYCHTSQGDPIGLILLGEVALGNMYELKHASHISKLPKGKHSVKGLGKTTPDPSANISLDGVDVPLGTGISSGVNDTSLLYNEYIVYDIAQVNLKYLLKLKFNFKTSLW
smiles,measurement,setting,value
"COc1cc(CN2CCOCC2)cc2[nH]c(=O)c3c(c12)NCCC3 [Example 74, 10-Methoxy-8-(morpholinomethyl)-1,2,3,4-tetrahydrobenzo[h][1,6]naphthyridine-5(6H)-one dihydrochloride]",IC50,PARP-1 enzyme [1],230 nM
same,IC50,PARP-1 enzyme [2],1480 nM
same,SN-38 PF50,SK-OV-3 Cell line; 2 μM compound,2.2
same,Temozolomide PF50,SK-OV-3 Cell line; 2 μM compound,>5.0
same,GI50,"SK-OV-3 Cell line; Homo sapiens, 72 hours",52000 nM
